Legend:
A549 cells [1] = test: Cell size (FSC) and complexity (SSC) by flow cytometry; assay type: cell-based, human; conditions: A549, 10 µM, UV irradiation
Procedure: To corroborate further the observed phenomena, we determined morphology changes in 2M-, 1-, and 1M-treated A549 cells after exposing them to UV light. Morphology changes were determined by flow cytometry, which allows the assessment of cell size (FSC) and complexity (SSC). […] This increase was the most pronounced in cells treated with 1 and 1M.

ct-DNA = test: Fluorimetric titration with ct-DNA, Scatchard equation; assay type: binding, calf; parameters: key: The changes were too small to allow an accurate calculation of the binding constant; conditions: I = 0.05 M
Procedure: (§1) Experiments were conducted in an aqueous buffer solution (pH = 7.0 or pH= 5.0, I = 0.05 M, sodium cacodylate buffer). For the UV-Vis spectra were used Varian Cary 100 Bio spectrometer, for fluorescence spectra we used the Varian Cary Eclipse fluorimeter and for CD spectra we used the JASCO J815 spectropolarimeter, all conducted at 25.0 °C using appropriate quartz cuvettes (path length: 1 cm).
Polynucleotides were purchased as noted: poly dAdT-poly dAdT, poly dGdC-poly dGdC, poly A-poly U (ds-RNA), (Sigma-Aldrich, Schnelldorf, Germany), calf thymus (ct)-DNA (Sigma-Aldrich, Schnelldorf, Germany) and dissolved in sodium cacodylate buffer, I = 0.05 M, pH = 7.0. The ct-DNA was sonicated and filtered through a 0.45 µm filter to obtain mostly short (ca. 100 base pairs) rod-like B-helical DNA fragments. The concentration of DNA or RNA was determined spectroscopically as the c(nucleobase) using producer-provided molar extinction coefficients.
Fortunately, strong emission from the compounds studied allowed fluorimetric titrations to be performed at much lower concentrations of the dyes (c = 5 × 10^−8 M), thus preventing precipitation of non-methylated 1 or 2, and allowing for the collection of numerous data points at excess of DNA/RNA binding sites over c(dye). […] Intriguingly, mixed sequence ct-DNA caused emission quenching of 1M at an excess of dye over ct-DNA (r > 0.1), and such quenching could be attributed to aggregation of 1M along DNA, while at an excess of ct-DNA over dye (r << 0.1), emission increased. The emission of 2M was indiscriminately quenched by all ds-DNA/RNA (Figure 2d).
(§2) Processing of fluorimetric titrations by means of the Scatchard equation [56, 57] yielded binding constants (Table 2). […] Affinities of 1 and 2 toward BSA were the same at both pH values, supporting the conclusion that neutral forms of 1 and 2 were bound.

BSA = BSA (Bos taurus, UniProt P02769); test: Fluorimetric titration with BSA, Scatchard equation; assay type: binding, bovine; conditions: I = 0.05 M; for Kd: pH 7, sodium cacodylate buffer, read-out: Binding constant logKs BSA (converted)
Procedure: as §1
As the pharmacokinetic properties of small molecules often depend on a binding affinity toward transport proteins (such as serum albumin), we performed fluorimetric titrations with BSA. The emission of both 1M and 2M (Supplementary Information, Figures S15 and S16), was strongly quenched, with compound 2M showing a lower affinity in comparison to ds-DNA/RNA, while the affinity of 1M was similar to that towards ds-DNA/RNA (Table 2).
as §2

A549 cells [2] = test: Detection of total ROS (DCF, flow cytometry); assay type: cell-based, human; conditions: A549, 10 µM
Procedure: Detection of total ROS. For detecting total ROS, A549 cells were seeded in 12-well tissue culture plates and 24 h after were treated with a 10 μM working solution of the respective compound and incubated for 90 min (37 °C, 5% CO2), allowing the compound to enter to cells. The same dilution of DMSO served as a control, while H2O2 (0.002%) was used as a positive control. One plate was irradiated with UV light (350 nm) for 5 min, and was analysed immediately after UV exposure. The plate that was not irradiated with UV light served as the control, and was incubated in the cell incubator (37°C, 5% CO2) during the whole experiment. Subsequently, cells were washed with PBS, trypsinised, resuspended with cold PBS supplemented with 10% FBS and centrifuged for 5 min (RT, 1100 g). Cell pellets were resuspended and washed again, but this time with cold PBS supplemented with 1% FBS and centrifuged for 5 min (RT, 1100 g). After the second washing, cell pellets were resuspended in 5 μM 2′,7′–dichloro-fluorescin diacetate (H2DCFDA, Sigma, USA) which is converted to dichlorofluorescein (DCF) in contact with ROS. Unstained cells were resuspended in PBS supplemented with 1% FBS. Cells were then analysed by flow cytometry using FACSCalibur (BD Biosciences, San Jose, CA, USA).

A549 cells [3] = test: MTT cell viability assay, A549, with or without UV light; assay type: cell-based, human; conditions: for Ratio of IC50 non-irradiated vs UV-irradiated: A549; for Cytotoxic effect: A549, 10 μM and 1 μM, without UV; for Cytotoxic effect / IC50: MTT; for IC50: Homo sapiens, light or radiation study, 72 h
Procedure: Cells. Commercially available from American Type Culture Collection (ATCC), human epithelial lung adenocarcinoma A549 (ATCC® CCL-185™) and human normal lung fibroblast WI-38 (ATCC® CCL-75™) were grown according to supplier’s conditions, namely in Dulbecco Modified Eagle’s Medium (DMEM, Sigma Aldrich, St. Louis, MO, USA) supplemented with 10% of fetal bovine serum (FBS, Sigma Aldrich, USA). Cells were incubated in the cell incubator (Thermo Fischer Scientific, Waltham, MA, USA) at 37 °C and 5% CO2 in a humidified atmosphere.
Cell viability assay. In order to obtain a 10 mM stock solution chemical compounds (2M, 1, and 1M) were sterilely diluted in an appropriate volume of dimethyl sulfoxide solution (DMSO, Gram-Mol, Zagreb, Croatia). Solutions were kept in the dark and stored at 4 °C. The cytotoxic effects of each compound were assayed on A549 and WI-38 cells. […] Briefly, cells were seeded in 96-well tissue culture plates and 24 h later treated with 2M, 1, or 1M in the concentration range of 10–0.1 μM. Cells treated with the same dilutions of DMSO represented the control, while cells treated only with DMEM (10% FBS) represented the negative control. After 72 h, the media was removed, MTT solution was added into each well, and the plate was incubated (37 °C, 5% CO2) for 3 h. The resulting MTT-formazan products were dissolved using DMSO, and their absorbance at 600 nm was measured using a microplate reader.
For determining the effect of UV exposure, cells were seeded on two plates and treated with working solutions of the respective compounds as previously described. Plates were incubated (37 °C, 5% CO2) for 90 min, allowing the compounds to enter the cells. Then, one plate was exposed to UV light (Luzchem reactor, 350 nm, 8 lamps, in total 8 W, dose 50.6 mWm^−2; ~18 cm lamp to cell-plate) for 5 min, 3 days in a row at the same time each day, while the other plate was left in the cell incubator in the dark and served as a control.

[4] = A549, UV-irradiated (350 nm, 5 min, 3 days in a row)

BSA, sequence (P02769 25-607): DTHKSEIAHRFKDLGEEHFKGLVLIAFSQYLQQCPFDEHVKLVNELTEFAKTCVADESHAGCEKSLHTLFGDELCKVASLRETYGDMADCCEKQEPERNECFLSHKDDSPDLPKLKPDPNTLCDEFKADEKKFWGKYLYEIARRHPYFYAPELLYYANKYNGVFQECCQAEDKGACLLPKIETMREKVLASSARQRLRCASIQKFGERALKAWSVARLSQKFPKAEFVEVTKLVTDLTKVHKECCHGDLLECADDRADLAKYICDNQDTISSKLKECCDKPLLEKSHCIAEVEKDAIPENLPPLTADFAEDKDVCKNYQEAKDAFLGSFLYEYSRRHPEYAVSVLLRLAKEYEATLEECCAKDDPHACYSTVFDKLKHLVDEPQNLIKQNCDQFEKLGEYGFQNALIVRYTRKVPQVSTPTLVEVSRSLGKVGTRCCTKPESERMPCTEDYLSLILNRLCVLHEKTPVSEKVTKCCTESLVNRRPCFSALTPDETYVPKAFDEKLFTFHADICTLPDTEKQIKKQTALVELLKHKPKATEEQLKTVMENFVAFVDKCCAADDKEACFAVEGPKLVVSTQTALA

Row | Structure (SMILES) | Cell size (FSC) (A549 cells [1]) | Binding constant logKs ct-DNA (ct-DNA; pH 7, sodium cacodylate buffer) | Kd (BSA) | Intracellular ROS production (A549 cells [2]; UV light 350 nm 5 min) | Intracellular ROS production (A549 cells [2]; kept in dark) | Ratio of IC50 non-irradiated vs UV-irradiated (A549 cells [3]) | Cytotoxic effect (A549 cells [3]) | IC50 (A549 cells [3]; [4]) | IC50 (A549 cells [3]; A549, non-irradiated) | Binding constant logKs ct-DNA (ct-DNA; pH 5, sodium cacodylate buffer) | Binding constant logKs BSA (BSA; pH 5, sodium cacodylate buffer)
1 | C[n+]1ccc(-c2cc3ccc4cccc5ccc(c2)c3c45)cc1 [1M, 2-para-N-methylpyridinium pyrene] | increase in cell size | 5.5 | 3980 nM | immediate and strong increase in ROS production | induced the production of intracellular ROS | 15 | considerable cytotoxic effects | 100 nM | 1500 nM | – | –
2 | C[n+]1ccc(-c2cc3ccc4cc(-c5cc[n+](C)cc5)cc5ccc(c2)c3c45)cc1 [2M] | increase in cell size | 8.8 | 126 nM | immediate and strong increase in ROS production | – | four times | considerable cytotoxic effects | 2000 nM | 8000 nM | – | –
3 | c1cc2ccc3cc(-c4ccncc4)cc4ccc(c1)c2c34 [compound 1] | increase in cell size | b | 3160 nM | immediate and strong increase in ROS production | – | four times | considerable cytotoxic effects | 2000 nM | 8000 nM | 5.3 | 5.5
